According to patent US20240217966A1, “PHARMACEUTICAL COMPOSITION CONTAINING GLP-1 RECEPTOR AGONIST HAVING FUSED RING” (Shionogi & Co., Ltd., priority 2021, published 2024):
Where two headings read alike, the source gives them in different places.

Molecular target: T1, Human GLP-1 receptor (Homo sapiens, UniProt P43220)
T1 construct: expressed in transfected cells
Assay: Measurement of GLP-1 receptor agonist activity (cAMP assay)
Type: cell-based
Summary of the method: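 Agonism measured as cAMP accumulation by time-resolved FRET immunoassay in CHO-K1 cells stably expressing human GLP-1 receptor. Cells treated for 1 h at 37 °C with compound and forskolin (400 μM stock), in buffer containing the PDE inhibitors IBMX (0.1 mM) and RO20-1724 (0.2 mM).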

[1] = CHO-K1, hGLP-1R/CHO-K1 cells, cAMP, 100% = human GLP-1 (7-36) at 2 nM, 0% = DMSO only, read-out: Emax(%)
[2] = hGLP-1R/CHO-K1 cells, cAMP increase, 37° C. 1 hour
[3] = CHO-K1, maximum effect, cAMP increase in GLP-1 R/CHO-K1 cells, 2 nM human GLP-1 (7-36) = 100%, DMSO only = 0%, read-out: Emax
[4] = cAMP increase in GLP-1 R/CHO-K1 cells, 2 nM human GLP-1 (7-36) = 100%, DMSO only = 0%

T1 sequence (P43220 24-463): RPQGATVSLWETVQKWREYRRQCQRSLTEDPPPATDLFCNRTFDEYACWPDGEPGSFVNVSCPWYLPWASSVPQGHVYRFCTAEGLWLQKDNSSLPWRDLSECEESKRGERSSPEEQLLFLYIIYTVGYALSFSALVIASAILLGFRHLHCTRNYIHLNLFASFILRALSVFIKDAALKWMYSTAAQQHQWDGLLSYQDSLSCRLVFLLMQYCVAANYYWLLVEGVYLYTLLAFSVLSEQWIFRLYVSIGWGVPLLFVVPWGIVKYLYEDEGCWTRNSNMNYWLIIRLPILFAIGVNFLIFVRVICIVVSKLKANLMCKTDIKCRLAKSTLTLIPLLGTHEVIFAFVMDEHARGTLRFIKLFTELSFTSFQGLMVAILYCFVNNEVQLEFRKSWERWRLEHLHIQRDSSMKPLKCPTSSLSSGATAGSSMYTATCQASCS

Emax [1] [%]	EC50 [2] [nM]	Emax [3] [%]	EC50 [4] [nM]	Compound
–	–	107	0.396	C[C@H]1c2nc(OCc3ccc(Cl)cn3)c(C(F)(F)F)cc2CCN1Cc1nc2ccc(C(=O)O)nc2n1C[C@@H]1CCO1 [Compound I-391]
–	–	126	0.0176	COc1cc(C(=O)O)cc2c1nc(CN1CCc3cc(C(F)(F)F)c(OCc4ccc(Cl)cc4Cl)nc3[C@@H]1C)n2C[C@@H]1CCO1 [Compound I-377]
–	–	117	–	O=C(O)c1ccc2nc(CN3CCc4cc(C(F)(F)F)c(OCc5c(F)cc(Cl)cc5F)nc4C3)n(C[C@@H]3CCO3)c2c1F [Compound I-301]
–	–	108	0.0778	C[C@H]1c2nc(OCc3c(F)cc(F)cc3F)c(C(F)(F)F)cc2CCN1Cc1nc2ccc(C(=O)O)c(F)c2n1C[C@@H]1CCO1 [Compound I-361]
–	–	126	0.177	C[C@H]1c2nc(OCc3ccc(F)cc3F)c(C(F)(F)F)cc2CCN1Cc1nc2ccc(C(=O)O)cc2n1C[C@@H]1CCO1 [Compound I-254]
–	–	105	0.31	COc1cc(C(=O)O)cc2c1nc(CN1CCc3cc(Cl)c(OCc4ccc(C)cc4)cc3[C@@H]1C)n2C[C@@H]1CCO1 [Compound I-340]
–	–	115	0.104	C[C@H]1c2nc(OCc3ccc(OC(F)F)cc3F)c(C(F)(F)F)cc2CCN1Cc1nc2ccc(C(=O)O)c(F)c2n1C[C@@H]1CCO1 [Compound I-360]
–	–	108	1.97	O=C(O)c1ccc2nc(CN3CCc4cc(C(F)(F)F)c(OCc5ccc(F)cc5F)nc4C3)n(C[C@@H]3CCO3)c2c1 [Compound I-268]
–	–	105	1.38	C[C@H]1c2cc(OCc3ccc(Cl)cc3)c(Cl)cc2CCN1Cc1nc2c(F)cc(C(=O)O)cc2n1C[C@@H]1CCO1 [Compound I-332]
–	–	116	0.702	Cc1ccc(COc2nc3c(cc2C(F)(F)F)CCN(Cc2nc4c(F)cc(C(=O)O)cc4n2C[C@@H]2CCO2)C3)cc1 [Compound I-381]

The next lines start with the compound.

Compound	Emax [1] [%]	EC50 [2] [nM]	Emax [3] [%]	EC50 [4] [nM]
CCn1cncc1Cn1c(CN2CCc3cc(C(F)(F)F)c(OCc4ccc(Cl)cc4F)cc3C2)nc2ccc(C(=O)O)cc21 [Compound I-049]	95	5.03	–	–
COc1cc(C(=O)O)cc2c1nc(CN1CCc3cc(C(F)(F)F)c(OCc4ccc(Cl)cc4F)cc3[C@@H]1C)n2C[C@@H]1CCO1 [Compound I-189]	122	0.0651	–	–
COCCn1c(CN2CCc3cc(C(F)(F)F)c(OCc4ccc(Cl)cc4F)cc3C2)nc2ccc(C(=O)O)cc21 [Compound I-045]	93.7	81.5	–	–
C[C@H]1c2cc(OCc3ccccc3Cl)c(C(F)(F)F)cc2CCN1Cc1nc2ccc(C(=O)O)nc2n1C[C@@H]1CCO1 [Compound I-182]	126	3.31	–	–
C[C@H]1c2nc(OCc3ccc(F)cc3)c(C(F)(F)F)cc2CCN1Cc1nc2ccc(C(=O)O)cc2n1C[C@@H]1CCO1 [Compound I-218]	109	0.179	–	–
O=C(O)c1ccc2nc(CN3CCc4cc(C(F)(F)F)c(OCc5cc(F)c(F)cc5F)cc4C3)n(C[C@@H]3CCO3)c2c1 [Compound I-095]	112	10.5	–	–
COc1ccc(COc2cc3c(cc2C(F)(F)F)CCN(Cc2nc4ccc(C(=O)O)nc4n2C[C@@H]2CCO2)[C@H]3C)cc1 [Compound I-175]	101	3.58	–	–
C[C@H]1c2cc(OCc3ccc(OC(F)F)cc3F)c(C(F)(F)F)cc2CCN1Cc1nc2ccc(C(=O)O)nc2n1C[C@@H]1CCO1 [Compound I-184]	98	4.75	–	–
N#Cc1ccc(COc2cc3c(cc2C(F)(F)F)CCN(Cc2nc4ccc(C(=O)O)cc4n2C[C@@H]2CCO2)C3)c(F)c1 [Compound I-053]	115	14.6	–	–
C[C@H]1c2cc(OCc3ccc(C4CC4)cc3)c(C(F)(F)F)cc2CCN1Cc1nc2ccc(C(=O)O)c(F)c2n1C[C@@H]1CCO1 [Compound I-195]	96.3	3.29	–	–
O=C(O)c1ccc2nc(CN3CCc4cc(C(F)(F)F)c(OCc5ccccc5OC(F)F)cc4C3)n(C[C@@H]3CCO3)c2c1 [Compound I-152]	111	5.88	–	–
